Measured values published in patent publication US20230098403A1, “MAGNETIC RESONANCE IMAGING CONTRAST AGENT, PREPARATION METHOD AND USE THEREOF” (GUANGZHOU PINGLAN MEDICAL TECHNOLOGY CO., LTD., priority 2020, published 2023).

Tests used:
[1] = Relaxivity measurement (T1 and T2 relaxation, MRI Contrast Agent Analyzer); type: physicochemical; conditions: 0.5 T, 32° C., pH=7.4
Description: The method for measuring the relaxivity comprises the following steps: preparing contrast agent solutions in a gradient concentration (0.054, 0.109, 0.224, 0.451, 0.906 mM, in Hepes buffer, pH=7.4), and measuring the contrast agent samples at different concentrations by Niumag PQ001 MRI Contrast Agent Analyzer (0.5±0.08T, main frequency of instrument: 21.3 MHz; at 32° C.) to respectively obtain their T1 and T2 relaxation time, and then performing a linear fitting between the relaxation rate, Ri (Ri=1/Ti, i=1, 2) and the contrast agent concentrations to obtain a slope, i.e., relaxivity (ri, i=1, 2). Relaxivity reflects the ability of magnetic resonance imaging contrast agent to alter the relaxation time of water proton and is an important parameter to evaluate the quality of contrast agent. Relaxivity (ri, i=1, 2) is defined as the alteration in the relaxation rate of water proton (1/Ti, i=1, 2) by unit concentration of MRI Contrast agent (mmol/L).

[2] = Excretion kinetics test, Mn^2+ in urine and bile by ICP-MS; type: in vivo, SD rats; conditions: tail vein 0.1 mmol/kg; for Bile: Mn^2+ excretion amount / Bile: cumulative Mn^2+ excretion amount / Bile: cumulative Mn^2+ excretion rate / Urine: Mn^2+ excretion amount / Urine: cumulative Mn^2+ excretion amount / Urine: cumulative Mn^2+ excretion rate: SD rats, n = 7
Description: Clean grade Sprague Dawley (SD) rats, 5 males and 3 females, weighing 250±50 g, were purchased from the Animal Experimental Center of North Sichuan Medical College, fasted for 12-16 h before the experiment and anesthetized by intraperitoneal injection of 3% sodium pentobarbital (40 mg/kg).
The rat tail was soaked in hot water at about 40° C. for about 1 minute, and it was wiped and sterilized by a cotton ball dipped in alcohol followed by fixing and stretching the tip of the tail with left thumb and middle finger, and flatting with the index finger. The tail vein was located at both sides of the tail and was light cyan in color. Air in an indwelling needle was removed with normal saline, and the indwelling needle was inserted into the vein at an angle of 15° to the vein. When blood was returned, the indwelling needle was pushed forward after insertion. Then the indwelling needle was fixed on the tail of the rat, and normal saline was injected at a rate of about 2 mL/h.
After sterilization, a longitudinal incision was made in the middle of the abdomen of rats below the xiphoid, by incising the skin, subcutaneous tissue, linea alba, and peritoneum layer by layer into the abdomen. A forcep was used for opening the left and right lobes of the liver, below which the duodenum and omentum were exposed. The transverse part of the duodenum was stretched with the forcep in the middle, and the pale yellow biliary tract was covered by the omentum and extended from the subhepatic portion to the duodenum. The biliary tract was bluntly dissected out, picked out with a glass pick, and a venous indwelling needle was inserted near the duodenum, fixed with a hemostatic clip, and bile was collected as a pre-dose sample.
A longitudinal incision was made at 0.5 cm above the urethral orifice of rats, and the skin was incised and the muscles were bluntly separated. After the bladder was filled to a certain extent, the bladder was lifted by the left hand with a tweezer, and the venous indwelling needle was held by the right hand and was obliquely inserted into the bladder toward the top, along the opening of ureter on the dorsal lateral side of the bladder, and the needle was removed to collect urine as a pre-dose sample.
After collecting pre-dose bile and urine samples, the drug was rapidly administered in the tail vein at a dose of 0.1 mmol/kg.
The hourly biliary excretion amount and hourly urinary excretion amount were collected after drug administration; the samples were weighed and frozen at −20° C.
[…] of the sample (bile and urine) was diluted to 6 to 10 ml with 1% HNO3 to make the concentrations of Mn^2+ in the range of 1 to 1000 ppb. The concentrations of Mn^2+ in the samples solution were numbered and detected. The Mn^2+ concentrations in the sample solutions were calculated according to the response intensity and standard curve.
Origin 9.0 was used for calculating data and drawing. The excretion amount during the period was obtained by multiplying the dilution ratio, measurement concentration and urine (bile) volume. The excretion amount during each period was compared with the dosage of administration to obtain the percentage of cumulative drug excretion amount during the corresponding time period.

## O=C([O-])CN(CP(=O)([O-])O)C1CCCCC1N(CC(=O)[O-])CP(=O)([O-])O.[Mn+2].[Na+].[Na+] (centres unmarked) [KBR0826]
[1]
  relaxivity r1: 3.12 mmol⁻¹ s⁻¹
[2]; sampling period 0-1 h
  Bile: Mn^2+ excretion amount: 0.0386 mg
  Bile: cumulative Mn^2+ excretion amount: 0.0385 mg
  Bile: cumulative Mn^2+ excretion rate: 2.81%
  Urine: Mn^2+ excretion amount: 0.06995 mg
  Urine: cumulative Mn^2+ excretion amount: 0.06995 mg
  Urine: cumulative Mn^2+ excretion rate: 5.28%
[2]; sampling period 1-2 h
  Bile: Mn^2+ excretion amount: 0.0865 mg
  Bile: cumulative Mn^2+ excretion amount: 0.1251 mg
  Bile: cumulative Mn^2+ excretion rate: 9.31%
  Urine: Mn^2+ excretion amount: 0.1582 mg
  Urine: cumulative Mn^2+ excretion amount: 0.2281 mg
  Urine: cumulative Mn^2+ excretion rate: 18.27%
[2]; sampling period 2-3 h
  Bile: Mn^2+ excretion amount: 0.0518 mg
  Bile: cumulative Mn^2+ excretion amount: 0.1768 mg
  Bile: cumulative Mn^2+ excretion rate: 13.17%
  Urine: Mn^2+ excretion amount: 0.1094 mg
  Urine: cumulative Mn^2+ excretion amount: 0.3375 mg
  Urine: cumulative Mn^2+ excretion rate: 26.67%
[2]; sampling period 3-4 h
  Bile: Mn^2+ excretion amount: 0.0333 mg
  Bile: cumulative Mn^2+ excretion amount: 0.2101 mg
  Bile: cumulative Mn^2+ excretion rate: 15.69%
  Urine: Mn^2+ excretion amount: 0.02084 mg
  Urine: cumulative Mn^2+ excretion amount: 0.3399 mg
  Urine: cumulative Mn^2+ excretion rate: 26.71%
[2]; sampling period 4-5 h
  Bile: Mn^2+ excretion amount: 0.043 mg
  Bile: cumulative Mn^2+ excretion amount: 0.2627 mg
  Bile: cumulative Mn^2+ excretion rate: 19.66%
  Urine: Mn^2+ excretion amount: 0.01213 mg
  Urine: cumulative Mn^2+ excretion amount: 0.3521 mg
  Urine: cumulative Mn^2+ excretion rate: 27.59%
[2]; sampling period 5-6 h
  Bile: Mn^2+ excretion amount: 0.0318 mg
  Bile: cumulative Mn^2+ excretion amount: 0.2945 mg
  Bile: cumulative Mn^2+ excretion rate: 22.07%
  Urine: Mn^2+ excretion amount: 0.00387 mg
  Urine: cumulative Mn^2+ excretion amount: 0.3559 mg
  Urine: cumulative Mn^2+ excretion rate: 27.88%
[2]; sampling period 6-7 h
  Bile: Mn^2+ excretion amount: 0.0265 mg
  Bile: cumulative Mn^2+ excretion amount: 0.3209 mg
  Bile: cumulative Mn^2+ excretion rate: 24.05%
  Urine: Mn^2+ excretion amount: 0.00284 mg
  Urine: cumulative Mn^2+ excretion amount: 0.3588 mg
  Urine: cumulative Mn^2+ excretion rate: 28.09%
[2]; sampling period 7-8 h
  Bile: Mn^2+ excretion amount: 0.0219 mg
  Bile: cumulative Mn^2+ excretion amount: 0.3429 mg
  Bile: cumulative Mn^2+ excretion rate: 25.67%
  Urine: Mn^2+ excretion amount: 0.0018 mg
  Urine: cumulative Mn^2+ excretion amount: 0.3606 mg
  Urine: cumulative Mn^2+ excretion rate: 28.22%
[2]; sampling period 8-9 h
  Bile: Mn^2+ excretion amount: 0.02 mg
  Bile: cumulative Mn^2+ excretion amount: 0.3684 mg
  Bile: cumulative Mn^2+ excretion rate: 27.03%
  Urine: Mn^2+ excretion amount: 0.00083 mg
  Urine: cumulative Mn^2+ excretion amount: 0.3614 mg
  Urine: cumulative Mn^2+ excretion rate: 28.28%
[2]; sampling period 9-10 h
  Bile: Mn^2+ excretion amount: 0.0179 mg
  Bile: cumulative Mn^2+ excretion amount: 0.3859 mg
  Bile: cumulative Mn^2+ excretion rate: 29.97%
  Urine: Mn^2+ excretion amount: 0.00061 mg
  Urine: cumulative Mn^2+ excretion amount: 0.362 mg
  Urine: cumulative Mn^2+ excretion rate: 28.33%
[2]; rats
  excretion route: mainly excreted through liver and kidney
  time course of excretion in urine and bile: mainly in urine at the early stage and then in bile
[2]; rats, within 600 min
  excreted in liver and kidney: about 60%
  share of liver and kidney in excretion: half and half
